According to patent US7192746B2, “α-Isomaltosyltransferase, process for producing the same and use thereof” (Kabushiki Kaisha Hayashibara Seibutsu Kagaku Kenkyujo, priority 2000, dated 2007):

Tests used:
Test in all cases: Specificity to transferring acceptor
Assay type in all cases: biochemical
Set-up in all cases: key: −: no saccharide transferred product was formed; ±: a saccharide-transferred product formed in an amount of less than one percent to the total sugars; +: a saccharide-transferred product was formed in an amount of over one percent but below 10% to the total sugars; ++: a saccharide-transferred product was formed in an amount of over 10% to the total sugars
[1] = system: α-isomaltosyl-transferring enzyme from Arthrobacter globiformis A19; settings: partially purified enzyme, panose as saccharide donor, 10 units/g substrate, 3.2% (w/v), 30° C., pH 6.0, 24 hours
Description: (§1) Saccharides were tested as follows to examine whether they can be used as transferring acceptors for the α-isomaltosyl-transferring enzyme of the present invention. A solution of D-glucose, D-xylose, L-xylose, D-galactose, D-fructose, D-mannose, D-arabinose, D-fucose, L-sorbose, L-rhamnose, methyl-α-glucoside (or methyl-α-glucopyranoside), methyl-β-glucoside (or methyl-β-glucopyranoside), N-acetyl-D-glucosamine, D-ribose, L-ribose, D-psicose, sorbitol, xylitol, mannitol, arabitol, ribitol, erythritol, maltose, maltotriose, maltotetraose, maltopentaose, isomaltose, isomaltotriose, α,α-trehalose, α,β-trehalose, kojibiose, nigerose, cellobiose, gentibiose, isopanose, maltitol, maltotriitol, lactose, sucrose, erlose, isomaltosylglucoside, α-cyclodextrin, β-cyclodextrin, γ-cyclodextrin, or L-ascorbic acid was prepared. To each solution was added panose as a saccharide donor to give an equal concentration, admixed with 10 units/g substrate of a purified specimen of either α-isomaltosyl-transferring enzyme from Bacillus globisporus C9 obtained by the method in Experiment 4, Bacillus globisporus C11 obtained by the method in Experiment 7, Bacillus globisporus N75 obtained by the method in Experiment 11, or Arthrobacter ramosus S1 obtained by the method in Experiment 15, or a partially purified specimen of α-isomaltosyl-transferring enzyme from Arthrobacter globiformis A19 obtained by the method in Experiment 18, followed by adjusting the saccharide concentration to 3.2% (w/v). The mixtures thus obtained were enzymatically reacted at 30° C. and Ph 6.0 for 24 hours. The saccharide composition of the resulting reaction mixtures were analyzed on gas chromatography (abbreviated as “GLC” hereinafter) for monosaccharides and disaccharides as testing saccharides, and on HPLC for tri- or higher-saccharides as testing saccharides to confirm whether these saccharides can be used as transferring acceptors for the above enzymes with an index of the positive or negative formation of a saccharide transferred product. In performing GLC, the following apparatuses and conditions were used: GLC apparatus, “GC-16A” commercialized by Shimadzu Corporation, Tokyo, Japan; column, a stainless-steel column, 3 mm in diameter and 2 m in length, packed with 2% “SILICONE OV-17/[…]”, commercialized by GL Sciences Inc., Tokyo, Japan; carrier gas, nitrogen gas at a flow rate of 40 ml/min under temperature conditions of increasing from 160° C. to 320° C. at an increasing temperature rate of 7.5° C./min; and detection, a hydrogen flame ionization detector. In the case of HPLC analysis, the apparatuses and conditions used were: HPLC apparatus, “CCPD” commercialized by Tosoh Corporation, Tokyo, Japan; column, “ODS-AQ-303” commercialized by YMC Co., Ltd., Tokyo, Japan; eluent, water at a flow rate of 0.5 ml/min; and detection, a differential refractometer.

[2] = system: α-isomaltosyl-transferring enzyme from Arthrobacter ramosus S1; settings: panose as saccharide donor, 10 units/g substrate, 3.2% (w/v), 30° C., pH 6.0, 24 hours
Description: as §1

[3] = system: α-isomaltosyl-transferring enzyme from Bacillus globisporus C11; settings: panose as saccharide donor, 10 units/g substrate, 3.2% (w/v), 30° C., pH 6.0, 24 hours
Description: as §1

[4] = system: α-isomaltosyl-transferring enzyme from Bacillus globisporus C9; settings: panose as saccharide donor, 10 units/g substrate, 3.2% (w/v), 30° C., pH 6.0, 24 hours
Description: as §1

[5] = system: α-isomaltosyl-transferring enzyme from Bacillus globisporus N75; settings: panose as saccharide donor, 10 units/g substrate, 3.2% (w/v), 30° C., pH 6.0, 24 hours
Description: as §1

| SMILES | Product of transferring reaction, Enzyme of Stain A19 [1] | Product of transferring reaction, Enzyme of Strain S1 [2] | Product of transferring reaction, Enzyme of Strain C11 [3] | Product of transferring reaction, Enzyme of Strain C9 [4] | Product of transferring reaction, Enzyme of Strain N75 [5] |
| --- | --- | --- | --- | --- | --- |
| OC[C@@H](O)[C@@H](O)CO [Erythritol, erythritol] | ± (a saccharide-transferred product formed in an amount of less than one percent to the total sugars) | + (a saccharide-transferred product was formed in an amount of over one percent but below 10% to the total sugars) | + (a saccharide-transferred product was formed in an amount of over one percent but below 10% to the total sugars) | + (a saccharide-transferred product was formed in an amount of over one percent but below 10% to the total sugars) | + (a saccharide-transferred product was formed in an amount of over one percent but below 10% to the total sugars) |
| O=C1O[C@H]([C@@H](O)CO)C(O)=C1O [L-Ascorbic acid, L-ascorbic acid] | + (a saccharide-transferred product was formed in an amount of over one percent but below 10% to the total sugars) | ++ (a saccharide-transferred product was formed in an amount of over 10% to the total sugars) | ++ (a saccharide-transferred product was formed in an amount of over 10% to the total sugars) | ++ (a saccharide-transferred product was formed in an amount of over 10% to the total sugars) | ++ (a saccharide-transferred product was formed in an amount of over 10% to the total sugars) |
| C[C@H](O)[C@H](O)[C@@H](O)[C@@H](O)C=O [L-Rhamnose, L-rhamnose] | ± (a saccharide-transferred product formed in an amount of less than one percent to the total sugars) | + (a saccharide-transferred product was formed in an amount of over one percent but below 10% to the total sugars) | ± (a saccharide-transferred product formed in an amount of less than one percent to the total sugars) | ± (a saccharide-transferred product formed in an amount of less than one percent to the total sugars) | ± (a saccharide-transferred product formed in an amount of less than one percent to the total sugars) |
| O=C[C@@H](O)[C@@H](O)[C@@H](O)CO [L-Ribose, L-ribose] | ± (a saccharide-transferred product formed in an amount of less than one percent to the total sugars) | ++ (a saccharide-transferred product was formed in an amount of over 10% to the total sugars) | − | − | − |
| O=C(CO)[C@@H](O)[C@H](O)[C@@H](O)CO [L-Sorbose, L-sorbose] | + (a saccharide-transferred product was formed in an amount of over one percent but below 10% to the total sugars) | + (a saccharide-transferred product was formed in an amount of over one percent but below 10% to the total sugars) | + (a saccharide-transferred product was formed in an amount of over one percent but below 10% to the total sugars) | + (a saccharide-transferred product was formed in an amount of over one percent but below 10% to the total sugars) | + (a saccharide-transferred product was formed in an amount of over one percent but below 10% to the total sugars) |
| O=C[C@@H](O)[C@H](O)[C@@H](O)CO [L-Xylose, L-xylose] | ++ (a saccharide-transferred product was formed in an amount of over 10% to the total sugars) | ++ (a saccharide-transferred product was formed in an amount of over 10% to the total sugars) | ++ (a saccharide-transferred product was formed in an amount of over 10% to the total sugars) | ++ (a saccharide-transferred product was formed in an amount of over 10% to the total sugars) | ++ (a saccharide-transferred product was formed in an amount of over 10% to the total sugars) |
| OC[C@@H](O)[C@@H](O)[C@H](O)[C@H](O)CO [Mannitol, mannitol] | − | − | − | − | − |
| CO[C@H]1O[C@H](CO)[C@@H](O)[C@H](O)[C@H]1O [Methyl-α-glucoside, methyl-α-glucoside] | ++ (a saccharide-transferred product was formed in an amount of over 10% to the total sugars) | ++ (a saccharide-transferred product was formed in an amount of over 10% to the total sugars) | ++ (a saccharide-transferred product was formed in an amount of over 10% to the total sugars) | ++ (a saccharide-transferred product was formed in an amount of over 10% to the total sugars) | ++ (a saccharide-transferred product was formed in an amount of over 10% to the total sugars) |
| CO[C@@H]1O[C@H](CO)[C@@H](O)[C@H](O)[C@H]1O [Methyl-β-glucoside, methyl-β-glucoside] | + (a saccharide-transferred product was formed in an amount of over one percent but below 10% to the total sugars) | + (a saccharide-transferred product was formed in an amount of over one percent but below 10% to the total sugars) | ++ (a saccharide-transferred product was formed in an amount of over 10% to the total sugars) | ++ (a saccharide-transferred product was formed in an amount of over 10% to the total sugars) | ++ (a saccharide-transferred product was formed in an amount of over 10% to the total sugars) |
| CC(=O)N[C@H]1C(O)O[C@H](CO)[C@@H](O)[C@@H]1O (stereo partly drawn) [N-Acetyl-glucosamine, N-acetyl-D-glucosamine] | − | − | − | − | − |
| OC[C@@H](O)[C@@H](O)[C@@H](O)CO [Ribitol, ribitol] | − | ± (a saccharide-transferred product formed in an amount of less than one percent to the total sugars) | − | − | − |
